Experimental data from patent US20240366623A1, “COMPOSITIONS FOR PREVENTING OR TREATING CHARCOT-MARIE-TOOTH DISEASE (CMT)” (Chong Kun Dang Pharmaceutical Corp., priority 2021, published 2024).

How the values were obtained:
Type in all cases: in vivo, mouse
C3 CMT1A mice [1] = test: Analysis of muscle fiber atrophy (gastrocnemius) in C3 CMT1A mice
Protocol: (§1) Ten-week-old C3 CMT1A mice were provided with a standard diet (Central Lab Animal, Inc.) and water ad libitum and were housed in a controlled environment with a temperature of 22±2° C., a humidity of 44-56% and a 12-hour light-dark cycle. All experimental procedures were approved and performed according to the Institutional Animal Care and Use Committee (IACUC) of the Korea CKD Laboratory Animal Center (with an approved number: S-17_033).
Vehicle is 0.5% […] (MC), and each group was administered vehicle or compound 43 for seven weeks. TG or C3 refers to C3 CMT1A mice; a wild type (WT) is a group in which only vehicle is administered to normal mice; Vehicle(C3) or C3 group is a group in which only vehicle is administered to C3 CMT1A mice; and compound 43 is a group in which compound 43 is administered to C3 CMT1A mice with five animals in each group. […]
Mice were anesthetized with isoflurane and systemic perfusion through the heart was performed with saline solution (3 mL). […] The proportion of muscle fibers with atrophy was measured by dividing the number of muscle fibers with atrophy by the […], and the cross-sectional area of the muscle fibers was analyzed using NIS element software, and the results are shown in FIGS. 16 and 17.

C3 CMT1A mice [2] = test: Innervation of neuromuscular junctions (gastrocnemius) in C3 CMT1A mice
Protocol: as §1
Vehicle is 0.5% […] (MC), and each group was administered vehicle or compound 43 for seven weeks. […]
In addition, the section slide samples with at least 80 neuromuscular junctions per sample were divided into: fully innervation for a case in which patterns of having two antibodies positively stained are fully overlapped on the double staining with anti-synaptotagmin-2 and α-bungarotoxin; partially innervation for a case in which the patterns are partially overlapped; and denervation for a case in which no pattern is overlapped, and the each percentage value was calculated and the significance and graph of the results were analyzed and expressed through Prism 9, and are shown in FIG. 20.

C3 CMT1A mice [3] = test: Electrophysiological evaluation of sensory nerves in C3 CMT1A mice; details: tail
Protocol: Ten-week-old CMT1A mice were prepared in the same way as shown in Experimental Example 8-1. Particularly, the mice were separated and dosed with a vehicle or drug in the same manner as in table 12, and the number of mice in each group was five mice.
To perform an electrophysiological evaluation of sensory nerves, a stimulation cathode was placed at the tip of the tail of the mouse, a recording electrode was placed on the tail proximal to the body 30 mm from the stimulation cathode, and a ground electrode was also placed on a leg of the animal. The tail was stimulated to obtain sensory nerve conduction velocity (SNCV) and sensory nerve action potential (SNAP) amplitude values.
Data were represented as mean±SEM([…]). Statistical significance between groups was tested using one-way ANOVA and post hoc analysis was performed by Dunnett's test. All statistical analyses were performed with GraphPad Prism 9.0.

HSPB1^S135F CMT2F mice = test: Histopathological analysis: axon size of sciatic nerve fiber in HSPB1^S135F CMT2F mice; details: mean ± SEM
Protocol: This experiment was made to confirm the effect of the compound of the present disclosure on the axon size of the sciatic nerve fiber.
6.5 to 8.5-month-old male HSPB1^S135F CMT2F mice were provided with a standard diet (Central Lab Animal, Inc.) and water ad libitum and were housed in a controlled environment with a temperature (22±2° C.), humidity (44-56%), and a 12-hour light-dark cycle.
Compound 43 (1 and 10 mg/kg) of the present disclosure was orally administered repeatedly twice a day for 12 weeks. After the final treatment, the sciatic nerve was collected at 0.5 hours and fixed overnight in a 2.5% glutaraldehyde solution (340855, Sigma). A sample was transferred to the Department of Pathology in Asan Hospital for semithin sections and toluidine blue (T3260, Sigma) staining.
The fixed sample was processed conventionally for image analysis. A […] section was prepared and stained with toluidine blue.
A histological evaluation was performed under optical microscopy. Pathological changes including demyelination, remyelination, abnormally thin myelin, and axonal morphological change were investigated from the section. At last, an axon diameter was analyzed with Image J software.
Data were expressed as mean±SEM. One-way ANOVA and post-hoc analysis using Dunnett's test were used for statistical significance between the HSPB1^S135F CMT2F (vehicle) group and the HSPB1^S135F CMT2F (Compound 43) group, and the paired T-test was used for statistical significance between the WT group and the HSPB1^S135F CMT2F (vehicle) group. All statistical analyses were performed with GraphPad Prism 5.0.

SMILES: O=C(N1CCS(=O)(=O)CC1)N(Cc1ccc(-c2nnc(C(F)F)o2)cn1)c1ccccc1 [Compound 43, N-((5-(5-(difluoromethyl)-1,3,4-oxadiazol-2-yl)pyridin-2-yl)methyl)-N-phenylthiomorpholine-4-carboxamide 1,1-dioxide]
- proportion of atrophic muscle fibers (C3 CMT1A mice [1]; 10 mg/Kg PO BID seven weeks (FIG. 16)): lowered
- cross-sectional area of muscle fibers (C3 CMT1A mice [1]; 10 mg/Kg PO BID seven weeks (FIG. 17)): increased
- proportion of partially innervated NMJ and denervated NMJ (C3 CMT1A mice [2]; 10 mg/Kg PO BID seven weeks (FIG. 20)): remarkably decreased
- fully innervated NMJ (C3 CMT1A mice [2]; 10 mg/Kg PO BID seven weeks (FIGS. 19 and 20)): increased
- sensory nerve conduction velocity (SNCV) (C3 CMT1A mice [3]; 10 mg/Kg PO BID eight weeks (FIG. 24)): significantly increased
- sensory nerve action potential (SNAP) amplitude (C3 CMT1A mice [3]; 10 mg/Kg PO BID eight weeks (FIG. 25)): significantly increased
- axons with Diameter of Axon (μm) 1-2 (HSPB1^S135F CMT2F mice; 1 mg/kg PO BID 12 weeks): 691 ± 74
- axons with Diameter of Axon (μm) 2-3 (HSPB1^S135F CMT2F mice; 1 mg/kg PO BID 12 weeks): 574 ± 54
- axons with Diameter of Axon (μm) 3-4 (HSPB1^S135F CMT2F mice; 1 mg/kg PO BID 12 weeks): 429 ± 70
- axons with Diameter of Axon (μm) 4-5 (HSPB1^S135F CMT2F mice; 1 mg/kg PO BID 12 weeks): 269 ± 57
- axons with Diameter of Axon (μm) 5-6 (HSPB1^S135F CMT2F mice; 1 mg/kg PO BID 12 weeks): 196 ± 40
- axons with Diameter of Axon (μm) 6-7 (HSPB1^S135F CMT2F mice; 1 mg/kg PO BID 12 weeks): 128 ± 26
- axons with Diameter of Axon (μm) 7-8 (HSPB1^S135F CMT2F mice; 1 mg/kg PO BID 12 weeks): 83 ± 21
- axons with Diameter of Axon (μm) 8-9 (HSPB1^S135F CMT2F mice; 1 mg/kg PO BID 12 weeks): 36 ± 13
- axons with Diameter of Axon (μm) 9-10 (HSPB1^S135F CMT2F mice; 1 mg/kg PO BID 12 weeks): 12 ± 5
- axons with Diameter of Axon (μm) <1 (HSPB1^S135F CMT2F mice; 1 mg/kg PO BID 12 weeks): 273 ± 64
- axons with Diameter of Axon (μm) >10 (HSPB1^S135F CMT2F mice; 1 mg/kg PO BID 12 weeks): 5 ± 3
- axons with Diameter of Axon (μm) 1-2 (HSPB1^S135F CMT2F mice; 10 mg/kg PO BID 12 weeks): 565 ± 26
- axons with Diameter of Axon (μm) 2-3 (HSPB1^S135F CMT2F mice; 10 mg/kg PO BID 12 weeks): 561 ± 49
- axons with Diameter of Axon (μm) 3-4 (HSPB1^S135F CMT2F mice; 10 mg/kg PO BID 12 weeks): 588 ± 29
- axons with Diameter of Axon (μm) 4-5 (HSPB1^S135F CMT2F mice; 10 mg/kg PO BID 12 weeks): 265 ± 31
- axons with Diameter of Axon (μm) 5-6 (HSPB1^S135F CMT2F mice; 10 mg/kg PO BID 12 weeks): 161 ± 21
- axons with Diameter of Axon (μm) 6-7 (HSPB1^S135F CMT2F mice; 10 mg/kg PO BID 12 weeks): 112 ± 20
- axons with Diameter of Axon (μm) 7-8 (HSPB1^S135F CMT2F mice; 10 mg/kg PO BID 12 weeks): 67 ± 12
- axons with Diameter of Axon (μm) 8-9 (HSPB1^S135F CMT2F mice; 10 mg/kg PO BID 12 weeks): 39 ± 12
- axons with Diameter of Axon (μm) 9-10 (HSPB1^S135F CMT2F mice; 10 mg/kg PO BID 12 weeks): 16 ± 7
- axons with Diameter of Axon (μm) <1 (HSPB1^S135F CMT2F mice; 10 mg/kg PO BID 12 weeks): 124 ± 42
- axons with Diameter of Axon (μm) >10 (HSPB1^S135F CMT2F mice; 10 mg/kg PO BID 12 weeks): 6 ± 5
